Data published in publication PMC3527734, “Peripheral injections of melanin-concentrating hormone receptor 1 antagonist S38151 decrease food intake and body weight in rodent obesity models” (Frontiers in Endocrinology, 2012).
Read-outs that look alike come from different tables or passages of the source. Where a SMILES comes first, the peptide text is derived from it.

Assays:
[1] = tested on: DIO mice; test: daily i.p. S38151 in diet-induced obese mice; format: in vivo, mouse
Description: In these studies, 13-week-old female C57BL/6J, ob/ob, and MCH1-KO mice were used. The mice were maintained on a 12-h light/dark cycle (lights on at 07:30 and off at 19:30) at 22 ± 3°C, and supplied with food pellets (6 mm diameter A03, UAR Laboratory chow, Epinay Villemuisson France) and tap water ad libitum. To induce obesity in C57BL/6J (creating diet-induced obese, or DIO, mice), mice were fed a high-fat diet (60 kcal% fat, 20 kcal% protein, 20 kcal% carbohydrate, ref D12492 from Research Diets, New Brunswick, NJ08901, USA) for 8 weeks starting at 4 weeks of age. In these experiments, DIO mice, ob/ob mice, and MCH^−/−1 mice were individually housed in a modular chamber that was placed on an activity platform to concurrently measure the food intake, water intake, and activity of the mice (ADDENFI, Les Cordeliers, Paris, France). For at least 2 weeks before experimentation, mice were habituated to a diet of 6 mm diameter food pellets of the following composition: 67.5% food flour, 26.5% sucrose, 5% gum tragacanth, 1.25% magnesium stearate (A03 UAR, Orge, France), and to i.p. injection. After this habituation period, food intake, drink intake, and body weight were measured for 3 consecutive days. The mice were randomized into three groups based on their food and water intake over the three preceding 24-h periods, and on their body weight. […]
Figure 9 The effects of repeated daily S38151 injection on food and water intake, body weight, and motility in diet-induced obese (DIO) mice. […] Results are expressed as mean ± SEM (n = 8 mice per group).

[2] = stability in TRIS buffer pH 7.4; format: physicochemical; conditions: pH 7.4, Tris buffer pH 7.4, 40 μM, LC-MS/MS, representative of three experiments, read-out: % S38151 remaining
Description: First, S38151 was incubated for 16 h at 4°C and 37°C in mouse plasma or in TRIS buffer (pH 7.4). Next, plasma proteins were precipitated with two volumes of acetonitrile. After centrifugation and dilution with a water/acetonitrile mixture (50/50 v/v), the supernatant was injected onto a triple quadripole mass spectrometer (Ultima, Micromass WATERS Corporation, Milford, USA). The liquid chromatographic system consisted of an Agilent 1100 analytic pump (Agilent, Santa Clara, USA) equipped with an Alpha Mos CTC autosampler (Alpha Mos, Toulouse, France). Mass detection was performed using the m/z transition 743.5 > 163, in positive electrospray. A second stability study was performed at a lower concentration (1 μM) and for 4 h, with the following sampling times: 0, 15, 45, 90, and 240 min. At each sampling time, 50 μL of plasma were precipitated with two volumes of acetonitrile, and after centrifugation were directly injected onto the LC-MS/MS system. The same treatment was used for the buffer samples.
Figure 2 Studies regarding the stability of S38151. A solution of S38151 (40 μM) was incubated with either Tris buffer, pH 7.4 (hatched bars), or mouse plasma samples (dark bars) for 16 h at 4°C or 37°C. The samples were analyzed using liquid chromatography coupled to mass spectrometry. Experiments were repeated three times. The chart presented is representative of the experimental results. […]

[3] = tested on: Wistar rats; test: NEI-MCH-induced food intake after acute i.c.v. injection; format: in vivo, rat
Description: Wistar and Zucker fa/fa rats were anesthetized with Forène (Abbott Laboratories, Queenborough, UK), and a stainless steel guide cannula (Plastic Products Co, Roanoke, Va, USA) was stereotaxically implanted into the right lateral ventricle at the following coordinates relative to the bregma: AP −0.8 mm, L = −1.2 mm, and V = −3.5 mm. After a 7-day recovery period, during which the animals were handled each day to minimize non-specific stress, they were lightly anesthetized with Forène. Human/mouse/rat MCH (1 μg in a volume of 2.5 μ L, Bachem, Voisins-le-Bretonneux, France) or an equivalent volume of artificial cerebrospinal fluid (CSF) was then injected through the intraventricular cannula. Immediately after injection, the animals quickly recovered and were returned to their home cages. Only those animals responding within 2 h with a robust increase in food intake, indicating correct cannula placement, were used in the experiments described below. Two days after MCH injection, the rats were randomly assigned to different groups and studied in one of the following protocols.
Wistar rats were habituated for at least 2 weeks before experiment to a diet of food pellets (6 mm diameter) of the following composition: 67.5% food flour, 26.5% sucrose, 5% gum tragacanth, and 1.25% magnesium stearate (A03 UAR, Orge, France). The food pellets were present in a metal food hopper attached to the inside of each cage. At 09:00 on the day of study, the animals were lightly anesthetized with Forene® (Abbott, France). Thereafter, rats were injected intra-cerebroventricular (i.c.v.) with vehicle (artificial CSF) or with S38151 [0.5, 5, 10, 20, 30, or 50 nmol/kg ([…], 14, 28, 42, or 70 μg/kg, respectively)] in a volume of 2.5 μL, 20 min prior to the injection of human/rat NEI-MCH [5 nmol/kg (18.7 μg/kg) in a volume of 2.5 μL].
Food intake was measured at different times after peptide injection. Food spillage was carefully quantified during each time period, and intake measurements were corrected for this loss. At the end of the experiments, the animals were euthanized and the positions of the cannulae were assessed by the injection of 100 μ L Evans blue dye (2 mg/mL) followed by the visual examination of brain slices. Only data obtained from animals with correctly positioned cannulae were included in the final data analysis.
Figure 3 The effect of S38151 on NEI-MCH-induced food intake in Wistar rats after acute central administration. Satiated rats were injected (i.c.v.) at the beginning of the light phase with 5 μg NEI-MCH, 5 μg NEI-MCH + differing doses of S38151 (0.5–50 nmol/kg), or an equivalent volume of artificial cereblospinal fluid vehicle (5 μL). Cumulative food intake was measured at 1, 2, 4, 6, and 24 h post-injection.

[4] = S38151 30 mg/kg i.p. daily for 16 days, data not shown
[5] = S38151 10 and 30 mg/kg i.p. daily for 5 days, significant from day 2 only at 30 mg/kg, n = 8

## CSCC[C@@H]1NC(=O)[C@@H](NC(=O)c2ccc(NC(=N)N)cc2)CSSC[C@@H](C(=O)N[C@@H](Cc2c[nH]c3ccccc23)C(=O)O)NC(=O)[C@@H]2CCCN2C(=O)[C@H](CCCNC(=N)N)NC(=O)[C@H](Cc2ccc(O)cc2)NC(=O)[C@H](C(C)C)NC(=O)[C@H](CCCNC(=N)N)NC(=O)[C@H](CC(C)C)NC1=O [S38151, p-guanidinobenzoyl-(Des-Gly10)-MCH (7–17)] (HELM PEPTIDE1{[N=C(N)Nc1ccc(C(=O)[*:2])cc1].C.M.L.R.V.Y.R.P.C.W}$PEPTIDE1,PEPTIDE1,2:R3-10:R3$$$V2.0; C-terminus assumed)
[1]; [4]
  body weight gain: significant reduction
  glycemia and insulinemia: reduced
  triglycerides, free fatty acids, and fat mass: significant reduction
[1]; S38151 30 mg/kg i.p., day 6, data not shown
  glycemia and insulinemia: significant reductions
[1]; S38151 10 and 30 mg/kg i.p. daily for 5 days, significant at day 3 and day 1, respectively
  body weight gain: reduction
[1]; [5]
  drink intake: dose-dependent inhibition
  food intake: dose-dependent inhibition
[1]; S38151 10 and 30 mg/kg i.p., day 3 to day 5
  motility: significant reduction
[2]; 4°C
  remaining at 16 h, 40 μM: 79%
[2]; 37°C
  remaining at 16 h, 40 μM: 32%
[3]; NEI-MCH alone or any combination of NEI-MCH and S38151, i.c.v.
  food intake during the entire 24-h period versus control group: not significantly altered
[3]; S38151 50 nmol/kg i.c.v.
  inhibition of NEI-MCH-induced food intake: Nearly complete inhibition
[3]; S38151 0.5-50 nmol/kg i.c.v. 20 min before NEI-MCH, first and second hours
  inhibition of the increase in food intake produced by NEI-MCH: statistically significant dose-related inhibition
